Source: patent US8648205B2, “Metal complexes of N-heterocyclic carbenes” (The University of Akron, priority 2003, dated 2014)
≈ marks a conversion by molar mass, not a printed value. Where two headings read alike, the source gives them in different places.

Legend:
solubility = conditions: 37: bromide salt; 20a, 20b: bromide salts
[1] = stability (air, light, water, chloride, storage); conditions: 37: bromide salt; 20a, 20b: bromide salts
Pseudomonas aeruginosa = experiment: Efficacy data MIC and MBC (Table 7); type: cell-based
Yersinia pestis = experiment: microbe, parasite or virus in culture; type: cell-based
Alcaligenes xylosoxidans = experiment: Efficacy data MIC and MBC (Table 7); type: cell-based
[2] = system: Stenotrophomonas maltophilia; experiment: Efficacy data MIC and MBC (Table 7); type: cell-based; conditions: isolate SM AH08
[3] = system: Methicillin resistant Staphylococcus aureus (MRSA); experiment: Efficacy data MIC and MBC (Table 7); type: cell-based
Escherichia coli = experiment: Efficacy data MIC and MBC (Table 7); type: cell-based

For OCCN1C=CN(CN2C=CN(CCO)C2)C1 [Formula 13], which “solubility in water / aqueous media” value (solubility) is on record?
Its value is “water soluble”.

For CN1c2c(n(C)c(=O)n(C)c2=O)N(C)[CH]1[Ag][CH]1N(C)c2c(n(C)c(=O)n(C)c2=O)N1C (stereo not drawn) [Formula 97a], which stability in water [1] is on record?
Its stability in water is “stable in water for five days”.

Which results are given for NC[C@H]1O[C@H](O[C@H]2[C@H](O)[C@@H](O[C@H]3O[C@H](CO)[C@@H](O)[C@H](N)[C@H]3O)[C@H](N)C[C@@H]2N)[C@H](N)C[C@@H]1O [Tobramycin, reference compound]?
MBC (Pseudomonas aeruginosa; Pseudomonas aeruginosa, isolate PA 01-V, read-out: MBC): > 20 µg/mL; MIC (Pseudomonas aeruginosa; Pseudomonas aeruginosa, isolate PA 01-V, read-out: MIC): 15 µg/mL (≈ 32.1 µM); MBC (Pseudomonas aeruginosa; Pseudomonas aeruginosa, isolate PA HP3, read-out: MBC): 8 µg/mL (≈ 17.1 µM); MIC (Pseudomonas aeruginosa; Pseudomonas aeruginosa, isolate PA HP3, read-out: MIC): 4 µg/mL (≈ 8.56 µM); MBC (Pseudomonas aeruginosa; Pseudomonas aeruginosa, isolate PA LF05, read-out: MBC): 1 µg/mL (≈ 2.14 µM); MIC (Pseudomonas aeruginosa; Pseudomonas aeruginosa, isolate PA LF05, read-out: MIC): 0.5 µg/mL (≈ 1.07 µM); MBC (Pseudomonas aeruginosa; Pseudomonas aeruginosa, isolate PA M57-15, read-out: MBC): 1 µg/mL (≈ 2.14 µM); MIC (Pseudomonas aeruginosa; Pseudomonas aeruginosa, isolate PA M57-15, read-out: MIC): 0.5 µg/mL (≈ 1.07 µM); MBC (Pseudomonas aeruginosa; Pseudomonas aeruginosa, isolate PA RR05, read-out: MBC): 1 µg/mL (≈ 2.14 µM); MIC (Pseudomonas aeruginosa; Pseudomonas aeruginosa, isolate PA RR05, read-out: MIC): 0.5 µg/mL (≈ 1.07 µM); MBC (Yersinia pestis; Yersinia pestis): 0.25 µg/mL (≈ 0.535 µM); MIC (Yersinia pestis; Yersinia pestis): 0.25 µg/mL (≈ 0.535 µM); MIC (Alcaligenes xylosoxidans; Achromobacter xylosoxidans, isolate AX RE05, read-out: MIC): > 20 µg/mL; MBC (Alcaligenes xylosoxidans; Achromobacter xylosoxidans, isolate AX 22, read-out: MBC): > 20 µg/mL; MIC (Alcaligenes xylosoxidans; Achromobacter xylosoxidans, isolate AX 22, read-out: MIC): 20 µg/mL (≈ 42.8 µM); MBC (Alcaligenes xylosoxidans; isolate AX RE05): >20 µg/mL; MBC ([2]; Stenotrophomonas maltophilia, read-out: MBC): 20 µg/mL (≈ 42.8 µM); MIC ([2]; Stenotrophomonas maltophilia, read-out: MIC): 8 µg/mL (≈ 17.1 µM); MBC ([3]; Staphylococcus aureus, MRSA, isolate SA LL06, read-out: MBC): > 20 µg/mL; MIC ([3]; Staphylococcus aureus, MRSA, isolate SA LL06, read-out: MIC): > 20 µg/mL; MBC ([3]; isolate SA EH06): >20 µg/mL; MIC ([3]; isolate SA EH06): >20 µg/mL; MBC (Escherichia coli; Escherichia coli, isolate J53, read-out: MBC): 1 µg/mL (≈ 2.14 µM); MIC (Escherichia coli; Escherichia coli, isolate J53, read-out: MIC): 1 µg/mL (≈ 2.14 µM); MBC (Escherichia coli; isolate J53 + pMG101): 1 µg/mL; MIC (Escherichia coli; isolate J53 + pMG101): 1 µg/mL

For CC(=O)[O][Ag][c]1n(C)c2c(=O)n(C)c(=O)n(C)c2[n+]1C [SCC1], which MBC (Pseudomonas aeruginosa; isolate PA 01-V) is on record?
The MBC was 2 µg/mL.

And the MIC (Pseudomonas aeruginosa; isolate PA 01-V)?
The MIC was 1 µg/mL.

What about the MBC (Pseudomonas aeruginosa; isolate PA HP3) of the same molecule?
Its MBC is 8 µg/mL.

And the MIC (Pseudomonas aeruginosa; isolate PA HP3)?
The MIC was 4 µg/mL.

And the MBC (Pseudomonas aeruginosa; isolate PA LF05)?
The MBC was 1 µg/mL.

And the MIC (Pseudomonas aeruginosa; isolate PA LF05)?
The MIC was 1 µg/mL.

What about the MBC (Pseudomonas aeruginosa; isolate PA M57-15) of the same molecule?
Its MBC is 4 µg/mL.

And the MIC (Pseudomonas aeruginosa; isolate PA M57-15)?
The MIC was 2 µg/mL.

What about the MBC (Pseudomonas aeruginosa; isolate PA RR05) of the same molecule?
The MBC was 1 µg/mL.

And the MIC (Pseudomonas aeruginosa; isolate PA RR05)?
The MIC was 0.5 µg/mL.

What about the MBC (Yersinia pestis; isolate YP1-1CO92-LCR-) of the same molecule?
The MBC was 1 µg/mL.

What about the MIC (Yersinia pestis; isolate YP1-1CO92-LCR-) of the same molecule?
The MIC was 0.5 µg/mL.

What about the MBC (Alcaligenes xylosoxidans; isolate AX 22) of the same molecule?
The MBC was 2 µg/mL.

And the MIC (Alcaligenes xylosoxidans; isolate AX 22)?
Its MIC is 0.5 µg/mL.

What about the MBC (Alcaligenes xylosoxidans; isolate AX RE05) of the same molecule?
The MBC was 8 µg/mL.

What about the MIC (Alcaligenes xylosoxidans; isolate AX RE05) of the same molecule?
Its MIC is 4 µg/mL.

And the MBC [2]?
The MBC was 8 µg/mL.

What about the MIC [2] of the same molecule?
The MIC was 4 µg/mL.

And the MBC ([3]; isolate SA EH06)?
Its MBC is 20 µg/mL.

What about the MIC ([3]; isolate SA EH06) of the same molecule?
The MIC was 6 µg/mL.

And the MBC ([3]; isolate SA LL06)?
The MBC was 10 µg/mL.

And the MIC ([3]; isolate SA LL06)?
Its MIC is 8 µg/mL.

And the MBC (Escherichia coli; isolate J53)?
Its MBC is 1 µg/mL.

And the MIC (Escherichia coli; isolate J53)?
Its MIC is 1 µg/mL.

And the MBC (Escherichia coli; isolate J53 + pMG101)?
Its MBC is >20 µg/mL.

What about the MIC (Escherichia coli; isolate J53 + pMG101) of the same molecule?
Its MIC is >20 µg/mL.
